Experimental findings from patent US7749996B2, “Heterotricyclic metalloprotease inhibitors” (Alantos Pharmaceutical Holdings, Inc., priority 2006, dated 2010) are described below.

pIC50: −log10 of the molar value.

The first assay has as its target T1, catalytic domain of MMP-13 enzyme (Homo sapiens, UniProt P45452).
T1 construct: stock solution of catalytic domain of MMP-13 enzyme (produced by Alantos or commercially available from Invitek (Berlin), Cat.# 30100812); purchased Invitek (Berlin) 30100812
Briefly: Assay for determining MMP-13 inhibition (fluorescent substrate). Type of assay: biochemical. To be noted: Table 1, activity group. As to the method:
The typical assay for MMP-13 activity is carried out in assay buffer comprised of 50 mM Tris, pH 7.5, 150 mM NaCl, 5 mM CaCl2 and 0.05% Brij-35. Different concentrations of tested compounds are prepared in assay buffer in 50 μL aliquots. […] The mixture of enzyme and compound in assay buffer is thoroughly mixed and incubated for 10 min at room temperature. […] The time-dependent increase in fluorescence is measured at the 320 nm excitation and 390 nm emission by automatic plate multireader. The IC50 values are calculated from the initial reaction rates.
`O=C1COc2cc(CNC(=O)c3nc4sc5ccccc5c4c(=O)[nH]3)ccc2N1` [2/24] showed a pIC50 of 4.70 to 7.00.

`O=C1COc2ccc(CNC(=O)c3nc4sc5ccccc5c4c(=O)[nH]3)cc2N1` [2/25]: the pIC50 is > 7.00.

With `CN1CCc2c(sc3nc(C(=O)NCc4ccc5c(c4)NC(=O)CO5)[nH]c(=O)c23)C1` [2/29], the negative logarithm of the IC50 (pIC50) is > 7.00.

In the case of `O=C1COc2ccc(CNC(=O)c3nc4sc5c(c4c(=O)[nH]3)CCCC5)cc2N1` [2/33], the negative logarithm of the IC50 (pIC50) was > 7.00.

In turn, `O=C1COc2cc(CNC(=O)c3nc4sc5c(c4c(=O)[nH]3)CCCC5)ccc2N1` [2/34] had a negative-log IC50 (pIC50) of 4.70 to 7.00.

For the molecule `Nc1c(N2CCc3ccc(CNC(=O)c4nc5sc6c(c5c(=O)[nH]4)CCC6)cc3C2)c(=O)c1=O` [2/52], the negative logarithm of the IC50 (pIC50) is > 7.00.

Turning to `Nc1c(N2CCc3ccc(CNC(=O)c4nc5sc6ccccc6c5c(=O)[nH]4)cc3C2)c(=O)c1=O` [2/67], the pIC50 was > 7.00.

With `O=C1COc2ccc(CNC(=O)c3nc4sc5c(c4c(=O)[nH]3)C3CCN5CC3)cc2N1` [2/89], the pIC50 was > 7.00.

Turning to `Nc1c(N2CCc3ccc(CNC(=O)c4nc5sc6c(c5c(=O)[nH]4)C4CCN6CC4)cc3C2)c(=O)c1=O` [2/90], the negative-log IC50 (pIC50) is > 7.00.

As to `CC(=O)N1CCc2c(sc3nc(C(=O)NCc4ccc5c(c4)NC(=O)CO5)[nH]c(=O)c23)C1` [2/94], the negative-log IC50 (pIC50) was > 7.00.

With `CCOC(=O)C1CCc2sc3nc(C(=O)NCc4ccc5c(c4)NC(=O)CO5)[nH]c(=O)c3c21` (centres unmarked) [2/113], the negative-log IC50 (pIC50) was > 7.00.

Consider `CCOC(=O)C1CCc2sc3nc(C(=O)NCc4ccc5c(c4)CN(c4c(N)c(=O)c4=O)CC5)[nH]c(=O)c3c21` (centres unmarked) [2/114], for which the negative logarithm of the IC50 (pIC50) was > 7.00.

`O=C1COc2ccc(CNC(=O)c3nc4sc5c(c4c(=O)[nH]3)CCCS5)cc2N1` [2/119]: the pIC50 was > 7.00.

As for `Nc1c(N2CCc3ccc(CNC(=O)c4nc5sc6c(c5c(=O)[nH]4)CCCS6)cc3C2)c(=O)c1=O` [2/120], the pIC50 is > 7.00.

Take `CC(C)(C)c1ccc2c(c1)sc1nc(C(=O)NCc3ccc4c(c3)NC(=O)CO4)[nH]c(=O)c12` [2/143]: the negative-log IC50 (pIC50) is 4.70 to 7.00.

`CC(C)(C)c1ccc2c(c1)sc1nc(C(=O)NCc3ccc4c(c3)CN(c3c(N)c(=O)c3=O)CC4)[nH]c(=O)c12` [2/144]: the negative-log IC50 (pIC50) is 4.70 to 7.00.

As to `O=C1COc2ccc(CNC(=O)c3nc4sc5c(c4c(=O)[nH]3)CCC(c3ccccc3)C5)cc2N1` (centres unmarked) [2/145], the pIC50 is > 7.00.

As to `Nc1c(N2CCc3ccc(CNC(=O)c4nc5sc6c(c5c(=O)[nH]4)CCC(c4ccccc4)C6)cc3C2)c(=O)c1=O` (centres unmarked) [2/146], the negative logarithm of the IC50 (pIC50) was 4.70 to 7.00.

Take `Nc1c(N2CCc3ccc(CNC(=O)c4nc5sc6c(c5c(=O)[nH]4)CCCSC6)cc3C2)c(=O)c1=O` [2/219]: the negative-log IC50 (pIC50) was > 7.00.

With `O=C1COc2ccc(CNC(=O)c3nc4cc5c(cc4c(=O)[nH]3)CCC5)cc2N1` [2/246], the pIC50 is > 7.00.

Turning to `O=C(NCC1CC1)c1nc2sc3c(c2c(=O)[nH]1)CCC3` [2/291], the negative-log IC50 (pIC50) was 4.70 to 7.00.

As for `CC(C)NC(=O)c1nc2sc3c(c2c(=O)[nH]1)CCC3` [2/294], the pIC50 is 4.70 to 7.00.

The molecule `CS(=O)(=O)c1ccc(CNC(=O)c2nc3sc4c(c3c(=O)[nH]2)CCC4)cc1` [2/302] gave a pIC50 of 4.70 to 7.00.

For the molecule `O=C(c1nc2sc3c(c2c(=O)[nH]1)CCC3)N1CC[C@H]2CCCC[C@@H]2C1` [2/305], the pIC50 was 4.70 to 7.00.

Turning to `COC(=O)C1SCCN1C(=O)c1nc2sc3c(c2c(=O)[nH]1)CCC3` (centres unmarked) [2/307], the pIC50 is 4.70 to 7.00.

Take `O=C(NCc1cccnc1)c1nc2sc3c(c2c(=O)[nH]1)CCC3` [2/309]: the pIC50 was > 7.00.

`C[C@@H](NC(=O)c1nc2sc3c(c2c(=O)[nH]1)CCC3)c1ccc(F)cc1` [2/319]: the pIC50 was 4.70 to 7.00.

`NC(=O)[C@@H]1CCC[C@@H]1NC(=O)c1nc2sc3c(c2c(=O)[nH]1)CCC3` [2/323] gave a negative logarithm of the IC50 (pIC50) of 4.70 to 7.00.

Molecule `NC(=O)[C@@H](NC(=O)c1nc2sc3c(c2c(=O)[nH]1)CCC3)c1ccccc1` [2/327] showed a pIC50 of 4.70 to 7.00.

On to `O=C(NC(c1ccccc1)c1ccccn1)c1nc2sc3c(c2c(=O)[nH]1)CCC3` (centres unmarked) [2/328], for which the pIC50 is 4.70 to 7.00.

Consider `O=C(NCc1ccc(F)c(OC(F)(F)F)c1)c1nc2sc3c(c2c(=O)[nH]1)CCC3` [2/332], for which the pIC50 was > 7.00.

Molecule `O=C(NCc1csc2ccccc12)c1nc2sc3c(c2c(=O)[nH]1)CCC3` [2/333] had a pIC50 of 4.70 to 7.00.

In turn, `O=C(NCc1ccsc1)c1nc2sc3c(c2c(=O)[nH]1)CCC3` [2/344] showed a pIC50 of 4.70 to 7.00.

As to `O=C(CCc1ccc2sccc2c1)c1nc2sc3c(c2c(=O)[nH]1)CCC3` [2/352], the pIC50 is 4.70 to 7.00.

As for `O=C(NCc1ccc2occc2c1)c1nc2sc3c(c2c(=O)[nH]1)CCC3` [2/354], the negative logarithm of the IC50 (pIC50) is > 7.00.

Take `O=C(NCc1ccc(CN2CCOCC2)cc1)c1nc2sc3c(c2c(=O)[nH]1)CCC3` [2/355]: the pIC50 is 4.70 to 7.00.

For the molecule `O=C(NCc1cccc(N2CCOCC2)c1)c1nc2sc3c(c2c(=O)[nH]1)CCC3` [2/359], the pIC50 is > 7.00.

Regarding `NS(=O)(=O)c1ccc(CNC(=O)c2nc3sc4c(c3c(=O)[nH]2)CCC4)s1` [2/367], the negative logarithm of the IC50 (pIC50) is > 7.00.

Consider `O=C(NCc1ccc(C(F)(F)F)nc1)c1nc2sc3c(c2c(=O)[nH]1)CCC3` [2/368], for which the negative-log IC50 (pIC50) is 4.70 to 7.00.

As for `COC(=O)C1(CNC(=O)c2nc3sc4c(c3c(=O)[nH]2)CCC4)CCCCC1` [2/526], the negative-log IC50 (pIC50) was > 7.00.

In turn, `NS(=O)(=O)c1ccc(CCNC(=O)c2nc3sc4c(c3c(=O)[nH]2)CCC4)cc1` [2/530] gave a negative-log IC50 (pIC50) of 4.70 to 7.00.

Consider `O=C1COc2ccc(CNC(=O)c3nc4sc5c(c4c(=O)[nH]3)CCCNC5)cc2N1` [15/4], for which the pIC50 is > 7.00.

In the case of `O=C1COc2ccc(CNC(=O)c3nc4sc5c(c4c(=O)[nH]3)CNCC5)cc2N1` [15/5], the negative-log IC50 (pIC50) is > 7.00.

The target in the next assay is T2, activated MMP-8 enzyme (Homo sapiens, UniProt P22894).
T2 construct: purchased Calbiochem 444229
T2 sequence (P22894 101-467): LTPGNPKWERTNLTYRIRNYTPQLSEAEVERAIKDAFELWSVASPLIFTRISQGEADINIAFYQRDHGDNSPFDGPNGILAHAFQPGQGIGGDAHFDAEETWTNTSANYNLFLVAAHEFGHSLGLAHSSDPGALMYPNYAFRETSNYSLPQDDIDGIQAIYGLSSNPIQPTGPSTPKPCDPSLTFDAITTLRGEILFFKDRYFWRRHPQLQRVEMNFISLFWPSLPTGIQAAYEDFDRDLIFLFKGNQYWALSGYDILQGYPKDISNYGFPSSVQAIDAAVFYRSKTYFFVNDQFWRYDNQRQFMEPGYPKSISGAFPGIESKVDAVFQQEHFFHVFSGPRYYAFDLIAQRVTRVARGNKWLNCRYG
Briefly: Assay for determining MMP-8 inhibition (fluorescent substrate). The format is biochemical. The conditions noted are these: Table 2, activity group. Here is the method:
The typical assay for MMP-8 activity is carried out in assay buffer comprised of 50 mM Tris, pH 7.5, 150 mM NaCl, 5 mM CaCl2 and 0.05% Brij-35. Different concentrations of tested compounds are prepared in assay buffer in 50 μL aliquots. […] The mixture of enzyme and compound in assay buffer is thoroughly mixed and incubated for 10 min at 37° C. […] The time-dependent increase in fluorescence is measured at the 320 nm excitation and 390 nm emission by an automatic plate multireader at 37° C. The IC50 values are calculated from the initial reaction rates.
Turning to `O=C1COc2ccc(CNC(=O)c3nc4sc5ccccc5c4c(=O)[nH]3)cc2N1` [2/25], the negative logarithm of the IC50 (pIC50) is > 6.60.

Take `O=C1COc2ccc(CNC(=O)c3nc4sc5c(c4c(=O)[nH]3)CCCC5)cc2N1` [2/33]: the pIC50 was > 6.60.

For the molecule `Nc1c(N2CCc3ccc(CNC(=O)c4nc5sc6c(c5c(=O)[nH]4)CCC6)cc3C2)c(=O)c1=O` [2/52], the negative logarithm of the IC50 (pIC50) was > 6.60.

Take `CC(=O)N1CCc2c(sc3nc(C(=O)NCc4ccc5c(c4)NC(=O)CO5)[nH]c(=O)c23)C1` [2/94]: the negative-log IC50 (pIC50) is > 6.60.

In the case of `CCOC(=O)C1CCc2sc3nc(C(=O)NCc4ccc5c(c4)NC(=O)CO5)[nH]c(=O)c3c21` (centres unmarked) [2/113], the negative logarithm of the IC50 (pIC50) was > 6.60.

Take `CCOC(=O)C1CCc2sc3nc(C(=O)NCc4ccc5c(c4)CN(c4c(N)c(=O)c4=O)CC5)[nH]c(=O)c3c21` (centres unmarked) [2/114]: the pIC50 was > 6.60.

Consider `C#CCNC(=O)C1CCc2sc3nc(C(=O)NCc4ccc5c(c4)NC(=O)CO5)[nH]c(=O)c3c21` (centres unmarked) [2/223], for which the pIC50 was > 6.60.

For `COC(=O)C1Cc2sc3nc(C(=O)NCc4ccc5c(c4)CN(c4c(N)c(=O)c4=O)CC5)[nH]c(=O)c3c2C1` (centres unmarked) [2/230], the negative-log IC50 (pIC50) was > 6.60.

Take `CCNC(=O)CC1CCCc2sc3nc(C(=O)NCc4ccc5c(c4)NC(=O)CO5)[nH]c(=O)c3c21` (centres unmarked) [2/269]: the negative-log IC50 (pIC50) was > 6.60.

For the molecule `O=C(NCc1ccc2c(c1)OCO2)c1nc2sc3c(c2c(=O)[nH]1)CCC3` [2/382], the negative logarithm of the IC50 (pIC50) is 4.70 to 6.60.

Molecule `COc1cccc(CNC(=O)c2nc3sc4c(c3c(=O)[nH]2)CCC4)c1` [2/387] showed a negative logarithm of the IC50 (pIC50) of 4.70 to 6.60.

`O=C(NCc1cccc(N2CCOCC2)c1)c1nc2sc3c(c2c(=O)[nH]1)CCC3` [2/529] gave a pIC50 of 4.70 to 6.60.

`O=C1COc2ccc(CNC(=O)c3nc4sc5c(c4c(=O)[nH]3)CCNCC5)cc2N1` [15/3] showed a pIC50 of 4.70 to 6.60.

Consider `O=C1COc2ccc(CNC(=O)c3nc4sc5c(c4c(=O)[nH]3)CCCSC5)cc2N1` [Example 2/218], for which the pIC50 is > 6.60.

On to `CC(=O)N1Cc2sc3nc(C(=O)NCc4ccc5c(c4)NC(=O)CO5)[nH]c(=O)c3c2C1` [Example 42], for which the negative logarithm of the IC50 (pIC50) was 4.70 to 6.60.

In the case of `O=C1COc2ccc(CNC(=O)c3nc4sc5c(c4c(=O)[nH]3)CN(Cc3ccccc3)C5)cc2N1` [Example 43/1], the pIC50 was > 6.60.
